How the values were obtained:
nematode = details: general statement; cited from earlier work
[1] = test system: root-knot nematode (Meloidogyne incognita); details: known from prior reports; cited from earlier work
[2] = test system: H. glycines second-stage nematodes (J2), races 2 (HG type 1.2.5.7) and 5 (HG type 2.5.7); assay: whole plant or invertebrate; details: for nematocidal activity against races 2 and 5: 24 hours incubation, 0.5 and 1.0 mg/ml, overall statement; for mortality at 500 µg/mL / mortality at 1000 µg/mL: Heterodera glycines, 24 h, read-out: J2 mortality
Experimental: Determination of the nematocidal activity of phenolic compounds was conducted as previously described. Briefly, approximately 400 freshly hatched J2s in 900 μl of water were added to each well of a 24-well Microtest™ tissue culture plate, and 100 μl of the compound test solution was added at concentrations of 5 mg/ml and 10 mg/ml. Therefore, the final concentration of each compound in each suspension is 0.5 mg/ml and 1.0 mg/ml. Control samples received 100 μl of water. Three replicates per concentration were used. The plate was covered with the original solid lid and wrapped with Parafilm®, and samples were kept at 27° C. in an incubator. After 24 hours of incubation, dead and alive J2 nematodes were counted using a stereo microscope Leica M165 FC (×40) to evaluate mortality rates. J2 mortality can be estimated according to the mean percentage of dead J2 in the total number of J2 (alive and dead). Nematodes are considered dead when no movement was observed during 3 seconds of observation. The compounds 3,4-dihydroxybenzoic acid and 4-hydroxybenzaldehyde are commercially available at Sigma-Aldrich, USA.

Compound | direct nematocidal activity (nematode) | nematocidal activity against root-knot nematode [1] | nematocidal activity against races 2 and 5 [2] | mortality at 500 µg/mL [2] [%] | mortality at 1000 µg/mL [2] [%]
O=C(O)c1ccccc1O [SA, salicylic acid] | no direct nematocidal activity | – | – | – | –
O=C(O)c1ccc(O)c(O)c1 [3,4-dihydroxybenzoic acid] | – | showing nematocidal activity | demonstrated nematocidal activity | 19 | 30
O=Cc1ccc(O)cc1 [4-hydroxybenzaldehyde] | – | – | demonstrated nematocidal activity | 68 | 96
